Experiments:
[1] = biological target: PDC-3 (Pseudomonas aeruginosa, UniProt P24735, T105A); assay type: biochemical
[2] = tested on: E.coli DH10B pBCSK- PDC-3; test: MIC by agar dilution, cefotaxime alone or with boronate, strain producing PDC-3; assay type: cell-based; settings: E. coli possessing the P. aeruginosa AmpC; BATSI added to cefotaxime
[3] = tested on: E.coli DH10B; test: microbe, parasite or virus in culture; assay type: cell-based; settings: Escherichia coli
[4] = tested on: O=C(Cc1cccs1)N[C@@H]1C(=O)N2C(C(=O)O)=C(/C=C/c3ccc([N+](=O)[O-])cc3[N+](=O)[O-])CS[C@H]12; test: purified protein, by the assay type; settings: other: substrate; used to correct Ki; pH 7.4

## O=C(Cc1cccs1)N[C@@H](Cn1ccnn1)B(O)O [Compound 13f, (1R)-2-([1,2,3]triazol-1-yl)-1-(2-thienylacetylamino)ethaneboronic acid]
[1]; 13f compared with Ref Compound A, from Ki vs PDC-3
  contribution of the methyltriazole to binding (ΔΔG): 0.5 kcal/mol

## O=C(Cc1cccs1)N[C@@H](Cn1cc(C(=O)O)nn1)B(O)O [Compound 13a, (1R)-2-(4-Carboxy-[1,2,3]triazol-1-yl)-1-(2-thienylacetylamino)ethaneboronic acid]
[2]
  reduction in MIC of cefotaxime: five dilution (2 log) reduction
[1]; 13a compared with 13f, from Ki vs PDC-3, ΔΔGbind = −RTln Ki ref/Ki
  energetic contribution to binding of the carboxylate (ΔΔGbind): 2.2 kcal/mol
[1]; 13a compared with Reference compound B
  improvement in recognition caused by ring hopping (ΔΔG): 0.7 kcal/mol

## O=C(Cc1cccs1)N[C@@H]1C(=O)N2C(C(=O)O)=C(/C=C/c3ccc([N+](=O)[O-])cc3[N+](=O)[O-])CS[C@H]12 [nitrocefin, reference compound]
[1]; read-out: Km of nitrocefin, PDC-3, substrate, used to correct Ki
  Km: 14.6 ± 2.2 µM

## CO/N=C(\C(=O)N[C@@H]1C(=O)N2C(C(=O)O)=C(COC(C)=O)CS[C@H]12)c1csc(N)n1 [TAX, cefotaxime]
[3]
  MIC: < 0.125 µg/mL

## P99 (Enterobacter cloacae)
[4]
  Km: 20.03 ± 2.05 µM

— PMC5744665 (Journal of medicinal chemistry, 2015)
